Experimental data taken from patent publication US4943581A, “Isoquinolinesulfonamides” (Hokuriku Pharmaceutical Co., Ltd., priority 1988, dated 1990).
Counter-ions that a name gives are not always drawn.

Columns and labels:
[1] = system: smooth muscle of the blood vessel (superior mesenteric artery); assay: Relaxation effect on smooth muscle of blood vessel (spiral specimen of superior mesenteric artery contracted with 20 mM KCl); conditions: Oryctolagus cuniculus; concentration giving 50% relaxation; contraction induced by 20 mM KCl taken as 100%; 37°±0.5° C.; rabbit superior mesenteric artery; read-out: ED50 (the source's name)
Procedure: The extracted blood vessels were cut in the usual way into the form of spirals, and a specimen of 1.5-2.5 mm in width and 20-30 mm in length was formed. The spiral specimen was suspended in 20 ml organ bath comprising Krebs-Henseleit's solution, after which a tension of 2.0-0.5 g was loaded. The nutrient solution was warmed at 37°±0.5° C. and ventilated by mixed gas of 95% oxygen and 5% carbon dioxide. The lower end was fixed, whereas the upper end was attached to a force-displacement transducer (SB-1T) manufactured by Nihon Koden Company. The change of tension was recorded isometrically. The specimen was suspended for at least 60 minutes before the test was begun, and the nutrient solution was exchanged every 15 minutes to conduct the experiment in the meantime.
The relaxation effect upon the smooth muscle of the blood vessel was tested. Previously, the spiral specimen had been contracted with 20 mM of KCl and maintained at a certain tension; thereafter the test agent was added cumulatively. Contraction induced by 20 mM KCl was taken as 100% and the relaxation effect of the test agent was represented by ED50 which was the concentration of the agent at which only 50% of the muscles remained shrunken.

[2] = molecular target: T1, myosin light-chain kinase (Gallus gallus, UniProt P11799); assay: Inhibition of myosin light-chain kinase (32P incorporation from [γ-32P] ATP into myosin light chain); type: biochemical; conditions: enzymatic activity depression of 50%; chicken gizzard; 200 μM CaCl2, 80 ng calmodulin, pH 7.0, 30 °C
T1 construct: myosin light chain kinase (prepared from the smooth muscles of chicken gizzard); from tissue; host or cells: smooth muscle of chicken gizzard (kinase); cattle brain (calmodulin)
T1 sequence (P11799 935-1906): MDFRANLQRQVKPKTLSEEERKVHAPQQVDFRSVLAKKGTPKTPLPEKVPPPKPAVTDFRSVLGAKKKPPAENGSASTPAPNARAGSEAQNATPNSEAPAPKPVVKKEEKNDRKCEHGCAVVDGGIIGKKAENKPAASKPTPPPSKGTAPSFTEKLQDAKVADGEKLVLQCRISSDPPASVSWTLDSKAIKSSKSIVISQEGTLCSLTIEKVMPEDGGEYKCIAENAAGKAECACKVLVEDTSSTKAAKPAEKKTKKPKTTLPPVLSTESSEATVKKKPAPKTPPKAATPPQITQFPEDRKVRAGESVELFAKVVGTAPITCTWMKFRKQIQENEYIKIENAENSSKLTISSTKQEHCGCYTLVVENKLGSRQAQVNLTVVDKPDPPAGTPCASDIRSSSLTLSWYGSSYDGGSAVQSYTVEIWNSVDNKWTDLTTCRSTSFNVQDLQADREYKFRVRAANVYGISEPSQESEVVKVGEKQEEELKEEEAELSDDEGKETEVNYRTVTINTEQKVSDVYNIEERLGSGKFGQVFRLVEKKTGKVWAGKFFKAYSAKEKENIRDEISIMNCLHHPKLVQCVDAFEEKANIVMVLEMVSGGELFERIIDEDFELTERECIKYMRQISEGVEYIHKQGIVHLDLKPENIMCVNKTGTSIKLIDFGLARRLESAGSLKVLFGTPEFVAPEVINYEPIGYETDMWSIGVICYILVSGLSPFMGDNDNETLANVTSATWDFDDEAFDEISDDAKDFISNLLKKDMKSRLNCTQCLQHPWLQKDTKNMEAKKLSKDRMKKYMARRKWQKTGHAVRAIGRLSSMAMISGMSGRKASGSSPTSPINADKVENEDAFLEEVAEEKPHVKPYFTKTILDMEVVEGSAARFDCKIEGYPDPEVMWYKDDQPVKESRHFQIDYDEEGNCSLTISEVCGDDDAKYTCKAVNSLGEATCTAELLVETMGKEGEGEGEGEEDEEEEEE
Procedure: A myosin light chain of the smooth muscles of chicken gizzard was used as a substrate and the amount of radioactive phosphoric acid incorporated from [γ-32P] ATP into the substrate-protein was measured for a determination of the activity of the enzyme. The reaction solution, in an amount of 200 μl as a whole, was constituted from 25 mM of Tris-HCl(pH 7.0), 10 mM MgCl2, 40 μg of myosin light chain (obtained by preparing myosin from the smooth muscle of chicken gizzard followed by guanidine denaturization), 200 μM of CaCl2, 80 ng of calmodulin (prepared from cattle brain), myosin light chain kinase (prepared from the smooth muscles of chicken gizzard), and agents of various concentrations. The reaction was started by the addition of 20 μl of 100 μM [γ-32P] ATP at 30 ° C., and stopped by the addition of 0.5 ml of 20% TCA. After the reaction was stopped, 3 ml of 5% TCA and 0.1 ml of 1 mg/ml albumin solution were added into the reaction mixture, the resulting solution was centrifuged, and the obtained acid-insoluble protein was fixed on the bottom of a test tube. Further, the supernatant was removed, 3 ml of 5% TCA was added into the residue, and the solution was centrifuged. […] The precipitated protein was dissolved with 2 ml of 1 N NaOH, transferred to a vial containing about 10 ml of water, and measured for Cherenkov effect by a liquid scintillation counter. […]

EC50 [1]: 32 µM
IC50 [2]: 31 µM
SMILES: NCCNS(=O)(=O)c1ccc(Cl)c2ccncc12 [Example 1, N-(2-Aminoethyl)-5-chloroisoquinoline-8-sulfonamide 2 hydrochloride]
